From patent US3981814A, “Bacteriostatic substituted benzanilide compositions and methods for their use” (Givaudan Corporation, priority 1975, dated 1976)
≈ marks a conversion by molar mass, not a printed value.

Test system: Staphylococcus aureus
Experiment: In vitro soap bacteriostatic test (agar dilution, spot inoculation, 35°, 48 hours)
Type: cell-based
Settings: for MIC: Staphylococcus aureus, without soap, read-out: Compound Activity Without Soap: minimum concentration where S. aureus growth is completely inhibited; for Compound Activity With Soap: minimum concentration where S. aureus growth is completely inhibited: ratio of soap to compound 100:1
Description: The antibacterial properties of the compounds prepared in Examples 1 - 14 were tested in soap. The in vitro soap bacteriostatic tests were conducted as follows: The compound is dissolved in a suitable solvent, usually dimethylformamide, to give a 6% solution. One-half ml. aliquot was added to 100 ml. of 3% solution of bar soap stock solution. The solid soap used was a neutral white toilet soap of the "LUX" type. The fatty acids in this soap were of the following composition: This yields an aqueous soap solution containing 30,000 mcg./ml. soap and 300 mcg./ml. compound. The soap/compound ratio in the latter is 100/l. A two-fold serial dilution series is prepared with this solution using sterile distilled water in test tubes such that the final volume in each tube is 2.0 ml. To each test tube is added 28 ml. of molten Dextrose Trypticase Extract Agar (B.B.L.). The tube contents were poured into sterile Petri plates and allowed to harden. The highest final concentration of compound in the serial dilution series is 20 mcg./ml. Plates were spot inoculated with a broth culture of Staphylococcus aureus and incubated at 35° for 48 hours. The lowest concentration completely inhibiting growth of the test organism, in mcg./ml. is recorded as the bacteriostatic concentration of the compound. Tests in the absence of soap are made in a similar manner except that all dilutions are made in solvent. The final concentration in the agar should not be greater than 5%. The results of these tests with the compounds of the present invention as compared with compounds having chemical structures closely related to the compounds of the present invention (designated by the symbol "C") are set forth in the Table. Column 1 contains the data as to the activity of the test solution without soap; column 2 refers to tests in which the ratio of soap to compound is 100:1. […] Growth is observed at the next lower concentration.

Structure (SMILES): O=C(Nc1ccccc1C(F)(F)F)c1ccccc1Cl [Compound C8]
- MIC: > 10 mg/L
- Compound Activity With Soap: minimum concentration where S. aureus growth is completely inhibited: B (Inactive at 10 mcg./ml. (highest concentration tested))

Structure (SMILES): O=C(Nc1cc(C(F)(F)F)cc(C(F)(F)F)c1)c1ccc(F)cc1 [Compound C27]
- MIC: > 20 mg/L
- Compound Activity With Soap: minimum concentration where S. aureus growth is completely inhibited: 10.0 µg/mL

Structure (SMILES): O=C(Nc1cc(C(F)(F)F)cc(C(F)(F)F)c1)c1cccc(Cl)c1 [Compound C25]
- MIC: > 20 mg/L
- Compound Activity With Soap: minimum concentration where S. aureus growth is completely inhibited: 10.0 µg/mL

Structure (SMILES): O=C(Nc1cccc(C(F)(F)F)c1)c1ccc(Cl)c(Cl)c1 [Compound 5]
- MIC: > 20 mg/L
- Compound Activity With Soap: minimum concentration where S. aureus growth is completely inhibited: 2.5 µg/mL

Structure (SMILES): O=C(Nc1cc(C(F)(F)F)ccc1Cl)c1ccccc1Cl [Compound C17]
- MIC: > 10 mg/L
- Compound Activity With Soap: minimum concentration where S. aureus growth is completely inhibited: B (Inactive at 10 mcg./ml. (highest concentration tested))

Structure (SMILES): O=C(Nc1cc(C(F)(F)F)cc(C(F)(F)F)c1)c1ccccc1Cl [Compound C26]
- MIC: > 20 mg/L
- Compound Activity With Soap: minimum concentration where S. aureus growth is completely inhibited: 10.0 µg/mL

Structure (SMILES): O=C(Nc1ccc(Cl)c(C(F)(F)F)c1)c1cccc(Br)c1 [Compound 11]
- MIC: > 20 mg/L
- Compound Activity With Soap: minimum concentration where S. aureus growth is completely inhibited: 2.5 µg/mL

Structure (SMILES): O=C(Nc1cc(C(F)(F)F)ccc1Cl)c1cccc(Cl)c1 [Compound C16]
- MIC: > 10 mg/L
- Compound Activity With Soap: minimum concentration where S. aureus growth is completely inhibited: B (Inactive at 10 mcg./ml. (highest concentration tested))

Structure (SMILES): CC(C)(C)c1ccc(C(=O)Nc2cccc(C(F)(F)F)c2)cc1 [Compound C39]
- MIC: > 20 mg/L
- Compound Activity With Soap: minimum concentration where S. aureus growth is completely inhibited: 5.0 µg/mL

Structure (SMILES): O=C(Nc1ccc(Cl)c(C(F)(F)F)c1)c1ccc(Cl)cc1 [Compound 8, 4,4'-Dichloro-3'(trifluoromethyl) benzanilide]
- MIC: 2.5 mg/L (≈ 7.48 µM)
- Compound Activity With Soap: minimum concentration where S. aureus growth is completely inhibited: 0.625 µg/mL

Structure (SMILES): O=C(Nc1ccc(Cl)c(Cl)c1)c1ccc(Cl)c(Cl)c1 [Compound C35]
- MIC: > 10 mg/L
- Compound Activity With Soap: minimum concentration where S. aureus growth is completely inhibited: B (Inactive at 10 mcg./ml. (highest concentration tested))

Structure (SMILES): O=C(Nc1ccc(Cl)c(C(F)(F)F)c1)c1ccc(F)cc1 [Compound C13]
- MIC: > 20 mg/L
- Compound Activity With Soap: minimum concentration where S. aureus growth is completely inhibited: 5.0 µg/mL

Structure (SMILES): O=C(Nc1cc(C(F)(F)F)ccc1Cl)c1ccc(F)cc1 [Compound C18]
- MIC: > 10 mg/L
- Compound Activity With Soap: minimum concentration where S. aureus growth is completely inhibited: B (Inactive at 10 mcg./ml. (highest concentration tested))

Structure (SMILES): O=C(Nc1cccc(C(F)(F)F)c1)c1ccc(F)cc1 [Compound C3]
- MIC: > 20 mg/L
- Compound Activity With Soap: minimum concentration where S. aureus growth is completely inhibited: 10.0 µg/mL

Structure (SMILES): O=C(Nc1cc(Cl)cc(Cl)c1)c1ccc(Cl)c(Cl)c1 [Compound C36]
- MIC: > 10 mg/L
- Compound Activity With Soap: minimum concentration where S. aureus growth is completely inhibited: B (Inactive at 10 mcg./ml. (highest concentration tested))

Structure (SMILES): O=C(Nc1ccc(Cl)c(C(F)(F)F)c1)c1ccc(Cl)c(Cl)c1 [Compound 12]
- MIC: > 20 mg/L
- Compound Activity With Soap: minimum concentration where S. aureus growth is completely inhibited: 0.312 µg/mL

Structure (SMILES): O=C(Nc1cc(Cl)cc(Cl)c1)c1ccc(Cl)cc1 [Compound C32]
- MIC: > 20 mg/L
- Compound Activity With Soap: minimum concentration where S. aureus growth is completely inhibited: 10.0 µg/mL

Structure (SMILES): O=C(Nc1ccc(F)c(C(F)(F)F)c1)c1ccc(Br)cc1 [Compound 18, 4-bromo-α,α,α, 4' -tetrafluoro-m-benzotoluidide]
- MIC: > 20 mg/L
- Compound Activity With Soap: minimum concentration where S. aureus growth is completely inhibited: 1.25 µg/mL

Structure (SMILES): O=C(Nc1ccc(Cl)c(C(F)(F)F)c1)c1ccc(Br)cc1 [Compound 10, 4-bromo-4'-chloro-α,α,α-trifluoro-m-benzotoluidide]
- MIC: 0.625 mg/L (≈ 1.65 µM)
- Compound Activity With Soap: minimum concentration where S. aureus growth is completely inhibited: 0.312 µg/mL

Structure (SMILES): CC(C)(C)c1ccc(C(=O)Nc2ccc(Cl)c(C(F)(F)F)c2)cc1 [Compound 22]
- MIC: > 20 mg/L
- Compound Activity With Soap: minimum concentration where S. aureus growth is completely inhibited: 2.5 µg/mL

Structure (SMILES): O=C(Nc1ccc(Cl)cc1)c1ccc(Cl)c(Cl)c1 [Compound C33]
- MIC: > 10 mg/L
- Compound Activity With Soap: minimum concentration where S. aureus growth is completely inhibited: B (Inactive at 10 mcg./ml. (highest concentration tested))

Structure (SMILES): O=C(Nc1ccc(Cl)c(C(F)(F)F)c1)c1cc(Cl)cc(Cl)c1 [Compound C11]
- MIC: > 10 mg/L
- Compound Activity With Soap: minimum concentration where S. aureus growth is completely inhibited: B (Inactive at 10 mcg./ml. (highest concentration tested))

Structure (SMILES): O=C(Nc1cccc(C(F)(F)F)c1)c1cccc(C(F)(F)F)c1 [Compound C4]
- MIC: > 20 mg/L
- Compound Activity With Soap: minimum concentration where S. aureus growth is completely inhibited: 10.0 µg/mL

Structure (SMILES): O=C(Nc1ccc(Br)c(C(F)(F)F)c1)c1cccc(Br)c1 [Compound 14, 3,4'-dibromo-α,α,α-trifluoro-m-benzotoluidide]
- MIC: > 20 mg/L
- Compound Activity With Soap: minimum concentration where S. aureus growth is completely inhibited: 1.25 µg/mL

Structure (SMILES): O=C(Nc1cc(C(F)(F)F)cc(C(F)(F)F)c1)c1cccc(C(F)(F)F)c1 [Compound C28]
- MIC: > 10 mg/L
- Compound Activity With Soap: minimum concentration where S. aureus growth is completely inhibited: B (Inactive at 10 mcg./ml. (highest concentration tested))

Structure (SMILES): O=C(Nc1ccc(Cl)c(C(F)(F)F)c1)c1ccccc1Br [Compound C14]
- MIC: > 10 mg/L
- Compound Activity With Soap: minimum concentration where S. aureus growth is completely inhibited: B (Inactive at 10 mcg./ml. (highest concentration tested))

Structure (SMILES): O=C(Nc1ccc(Cl)c(C(F)(F)F)c1)c1ccc(C(F)(F)F)cc1 [Compound 7, 4'-Chloro-α,α,α,α',α ',α ', -hexafluoro-p-tolu-m-toluidide]
- MIC: 0.625 mg/L (≈ 1.7 µM)
- Compound Activity With Soap: minimum concentration where S. aureus growth is completely inhibited: 0.312 µg/mL

Structure (SMILES): O=C(Nc1cccc(C(F)(F)F)c1)c1cc(Cl)cc(Cl)c1 [Compound 6]
- MIC: > 20 mg/L
- Compound Activity With Soap: minimum concentration where S. aureus growth is completely inhibited: 2.5 µg/mL

Structure (SMILES): O=C(Nc1ccc(Cl)cc1C(F)(F)F)c1ccccc1Cl [Compound C22]
- MIC: > 10 mg/L
- Compound Activity With Soap: minimum concentration where S. aureus growth is completely inhibited: B (Inactive at 10 mcg./ml. (highest concentration tested))

Structure (SMILES): O=C(Nc1cccc(C(F)(F)F)c1)c1ccccc1 [Compound C5]
- MIC: > 20 mg/L
- Compound Activity With Soap: minimum concentration where S. aureus growth is completely inhibited: 10.0 µg/mL

Structure (SMILES): N#CSc1ccc(NC(=O)c2ccc(Cl)cc2)cc1C(F)(F)F [Compound C23]
- MIC: > 20 mg/L
- Compound Activity With Soap: minimum concentration where S. aureus growth is completely inhibited: 5.0 µg/mL

Structure (SMILES): O=C(Nc1cccc(C(F)(F)F)c1)c1ccccc1Cl [Compound C1]
- MIC: > 20 mg/L
- Compound Activity With Soap: minimum concentration where S. aureus growth is completely inhibited: 10.0 µg/mL

Structure (SMILES): O=C(Nc1cc(C(F)(F)F)ccc1Cl)c1cccc(Br)c1 [Compound C19]
- MIC: > 10 mg/L
- Compound Activity With Soap: minimum concentration where S. aureus growth is completely inhibited: B (Inactive at 10 mcg./ml. (highest concentration tested))

Structure (SMILES): O=C(Nc1cccc(C(F)(F)F)c1)c1cccc(Br)c1 [Compound 4]
- MIC: > 20 mg/L
- Compound Activity With Soap: minimum concentration where S. aureus growth is completely inhibited: 2.5 µg/mL

Structure (SMILES): O=C(Nc1cccc(C(F)(F)F)c1)c1ccccc1Br [Compound C2]
- MIC: > 10 mg/L
- Compound Activity With Soap: minimum concentration where S. aureus growth is completely inhibited: B (Inactive at 10 mcg./ml. (highest concentration tested))

Structure (SMILES): O=C(Nc1ccc(Cl)c(Cl)c1)c1ccc(Br)cc1 [Compound C37]
- MIC: 10 mg/L (≈ 29 µM)
- Compound Activity With Soap: minimum concentration where S. aureus growth is completely inhibited: 20.0 µg/mL
